Test results from patent US4221781A, “Synergistic penicillin-cephalosporin compositions and methods” (priority 1971, dated 1980).
Like-named read-outs stand apart in the source and are kept apart here.

Legend:
[1] = tested on: Proteus (Proteus Mirabilis I 190); experiment: Example 11: in vitro M.I.C. of II, cephalosporins and 1:1 combinations; format: cell-based; details: Proteus Mirabilis I 190, read-out: M.I.C.
Method: (§1) Tryptose phosphate broth, containing the appropriate concentrations of the compounds or of the combination of them, was inoculated with 0.5×10^4 -5×10^4 organisms of the various microorganisms tested and incubated overnight at 37° C. Minimum inhibitory concentrations (M.I.C.) were taken as the concentrations of the compounds or of the combination at which no visible growth occurred.
Using the same technique as described in Example 1 the in vitro activity of 6-[(hexahydro-1H-azepin-1-yl)methyleneamino]penicillanic acid (II), of various cephalosporins and of 1:1 combinations of II with these cephalosporins was determined against a clinically isolated strain of Proteus (Proteus Mirabilis I 190).

[2] = tested on: Klebsiella-Enterobacter (strain 4/71); experiment: Example 10: in vitro M.I.C. of II, cephalosporins and 1:1 combinations; format: cell-based; details: Klebsiella-Enterobacter strain 4/71; read-out: M.I.C.
Method: as §1
Using the same technique as described in Example 1 the in vitro activity of 6-[(hexahydro-1H-azepin-1-yl)methyleneamino]penicillanic acid (II), of various cephalosporins previously mentioned in this specification, and of 1:1 combinations of II with these cephalosporins was determined against a clinically isolated strain of Klebsiella-Enterobacter (strain 4/71)

[3] = tested on: Klebsiella-Enterobacter; experiment: Example 4: in vitro M.I.C., serial dilution test, Klebsiella-Enterobacter; format: cell-based
Method: as §1

[4] = tested on: Proteus; experiment: Example 4: in vitro M.I.C., serial dilution test, Proteus; format: cell-based
Method: as §1

[5] = tested on: Proteus mirabilis; experiment: Example 1: in vitro M.I.C., serial dilution test, Proteus mirabilis; format: cell-based; details: Proteus mirabilis strain 35895; 37° C overnight
Method: as §1

[6] = tested on: clinically isolated coliform; experiment: Example 7: emergence of resistance, subculturing by serial twofold broth dilution; format: cell-based
Method: Subculturing using a serial twofold broth dilution technique was performed with 6-(D-α-aminophenylacetamido)-penicillanic acid (I), 6-[(hexahydro-1H-azepin-1-yl)methyleneamino]penicillanic acid (II), and a 1:1 combination of I and II. The strain used was a clinically isolated coliform. As inocula were used bacteria from the tube with the highest concentration of compound still permitting visible growth to the naked eye after incubation at 37° C. overnight. The following increases in MIC values were noted.

[7] = tested on: Coliform; experiment: Example 1: in vitro M.I.C., serial dilution test, coliforms; format: cell-based; details: 37° C overnight
Method: as §1

[8] = tested on: Proteus; experiment: Example 1: in vitro M.I.C., serial dilution test, Proteus; format: cell-based; details: 37° C overnight
Method: as §1

[9] = tested on: Proteus vulgaris; experiment: Example 1: in vitro M.I.C., serial dilution test, Proteus vulgaris; format: cell-based
Method: as §1

[10] = tested on: Klebsiella-Enterobacter; experiment: Example 9: in vitro MIC, serial dilution test, Klebsiella-Enterobacter; format: cell-based
Method: as §1
(§2) Using the technique described in Example 1 the in vitro effect of combinations of 6-(D-α-aminophenylacetamido)-penicillanic acid (I) and 6-[(N,N-diethylformamidino)-N'-amino]penicillanic acid (VII) in the ratios 1:1, 1:2 and 2:1 against clinically isolated strains of Coliforma, Klebsiella-Enterobacter and Proteus was determined in serial dilution tests.

[11] = tested on: Coliforma; experiment: Example 9: in vitro MIC, serial dilution test, Coliforma; format: cell-based
Method: as §1, §2

[12] = tested on: E.coli III; experiment: Example 6: emergence of resistance, subculturing by serial twofold broth dilution; format: cell-based; details: Escherichia coli
Method: Subculturing using a serial twofold broth dilution technique was performed with 6-(D-α-amino-phenylacetamido)-penicillanic acid (I), 6-[(piperidyl-1)methyleneamino]penicillanic acid (IV) and a 1:1 combination of I+IV. As inocula were used bacteria from the tube with the highest concentration of compound still permitting visible growth to the naked eye after incubation at 37° C. overnight. The following increases in MIC-values were noted.

[13] = tested on: E.coli III; experiment: Example 3: in vivo activity, mean curative dose in mice infected with E.coli III; design: species or system female NMRI white mice; details: Escherichia coli, sc, 96 h, subcutaneous, read-out: CD50 (mean curative dose)
Method: The number of deaths in the various groups were recorded after 96 hours and the mean curative doses (CD50) were calculated. (In the table, LD50 gives the dilution of an overnight culture of the organism causing a 50% death rate in animals receiving no therapy; the number of LD50 -doses records the severity of the infections given to the animals.)

[14] = tested on: Proteus; experiment: Example 9: in vitro MIC, serial dilution test, Proteus; format: cell-based
Method: as §1, §2

[15] = tested on: clinically isolated coliform bacterium; experiment: Example 5: in vitro M.I.C. of IV, various penicillins and 1:1 combinations; format: cell-based
Method: as §1
Using the same technique as described in Example 1 the in vitro activity of 6[(piperidyl-1)-methyleneamino]-penicillianic acid (IV), of various penicillins, and of 1:1 combinations of IV with these penicillins, was determined against a clinically isolated coliform bacterium.

[16] = tested on: Coliform; experiment: Example 4: in vitro M.I.C., serial dilution test, coliforms; format: cell-based
Method: as §1

[17] = Klebsiella-Enterobacter strain 2/70, read-out: M.I.C.
[18] = Proteus strain 6/70, read-out: M.I.C.
[19] = Proteus vulgaris A, 37° C overnight, read-out: M.I.C.
[20] = LD50 1.5·10^-3, 6.6 LD50-doses given
[21] = LD50 8.1·10^-4, 1.2·10^4 LD50-doses given

SMILES: CC(=O)OCC1=C(C(=O)O)N2C(=O)C(NC(=O)CSc3ccccc3)C2SC1 (stereo not shown) [EPC 825/1]
- MIC [1]: 25 µg/mL
- MIC [2]: > 100 µg/mL

SMILES: CC1(C)S[C@@H]2[C@H](NC(=O)[C@H](N)c3ccccc3)C(=O)N2[C@H]1C(=O)O [I, 6-(D-α-aminophenylacetamido)penicillanic acid]
- MIC ([3]; Klebsiella-Enterobacter strain 1/70): 50 µg/mL
- MIC [3, 17]: 25 µg/mL
- MIC ([3]; Klebsiella-Enterobacter strain 5/70): 100 µg/mL
- MIC ([3]; Klebsiella-Enterobacter strain 7/70): > 100 µg/mL
- MIC ([3]; Klebsiella-Enterobacter strain 9/70): 50 µg/mL
- MIC ([3]; Klebsiella-Enterobacter strain 10/70): 50 µg/mL
- MIC ([3]; Klebsiella-Enterobacter strain 431): 100 µg/mL
- MIC ([4]; Proteus strain 4/70): 1.56 µg/mL
- MIC [4, 18]: 0.39 µg/mL
- MIC ([4]; Proteus strain 7/70): 1.56 µg/mL
- MIC ([4]; Proteus strain 9/70): 6.25 µg/mL
- MIC ([4]; Proteus strain 10/70): 1.56 µg/mL
- MIC [5]: 25 µg/mL
- MIC ([6]; passage 7): 12.5 µg/mL
- MIC ([6]; passage 8): 12.5 µg/mL
- MIC ([7]; Coliform strain 3/70): 1.56 µg/mL
- MIC ([7]; Coliform strain 9/70): 3.12 µg/mL
- MIC ([7]; Coliform strain 10/70): 3.12 µg/mL
- MIC ([7]; Coliform strain 17/70): 3.12 µg/mL
- MIC ([8]; Proteus strain 12/70): 100 µg/mL
- MIC ([8]; Proteus strain 13/70): 100 µg/mL
- MIC ([8]; Proteus strain 20/70): > 100 µg/mL
- MIC [9]: 50 µg/mL
- MIC [9, 19]: 0.78 µg/mL
- MIC ([10]; Klebsiella-Enterobacter strain 1): 50 µg/mL
- MIC ([10]; Klebsiella-Enterobacter strain 5): 100 µg/mL
- MIC ([10]; Klebsiella-Enterobacter strain 7): > 100 µg/mL
- MIC ([10]; Klebsiella-Enterobacter strain 8, read-out: MIC): 25 µg/mL
- MIC ([11]; Coliforma strain 1): 1.56 µg/mL
- MIC ([11]; Coliforma strain 4): 3.12 µg/mL
- MIC ([11]; Coliforma strain 7): 1.56 µg/mL
- MIC ([11]; Coliforma strain 13): 3.12 µg/mL
- MIC ([11]; Coliforma strain 16): 3.12 µg/mL
- MIC ([12]; passage 0): 1.56 µg/mL
- MIC ([12]; passage 1): 6.25 µg/mL
- MIC ([12]; passage 2): 25 µg/mL
- MIC ([12]; passage 3): 50 µg/mL
- MIC ([12]; passage 4): 50 µg/mL
- MIC ([12]; passage 5): 100 µg/mL
- MIC ([12]; passage 6): 100 µg/mL
- ED50 [13, 20]: 5.5 mg/kg
- ED50 [13, 21]: 250 mg/kg
- MIC [14]: 3.12 µg/mL

SMILES: CC1(C)S[C@@H]2[C@H](N=CN3CCCCCC3)C(=O)N2[C@H]1C(=O)O [II, 6-[(hexahydro-1H-azepin-1-yl)methyleneamino]penicillanic acid]
- MIC [1]: > 100 µg/mL
- MIC [5]: 0.78 µg/mL
- MIC ([6]; passage 0): 0.39 µg/mL
- MIC ([6]; passage 1): 6.25 µg/mL
- MIC ([6]; passage 2): 25 µg/mL
- MIC ([6]; passage 3): 25 µg/mL
- MIC ([6]; passage 4): 25 µg/mL
- MIC ([6]; passage 5): 25 µg/mL
- MIC ([6]; passage 7): 25 µg/mL
- MIC ([6]; passage 8): 25 µg/mL
- MIC ([7]; Coliform strain 3/70): 12.5 µg/mL
- MIC ([7]; Coliform strain 17/70): 0.78 µg/mL
- MIC [2]: > 100 µg/mL
- MIC ([8]; Proteus strain 12/70, read-out: M.I.C.): 3.12 µg/mL
- MIC ([8]; Proteus strain 13/70, read-out: M.I.C.): 3.12 µg/mL
- MIC ([8]; Proteus strain 20/70, read-out: M.I.C.): > 100 µg/mL
- MIC [9, 19]: 0.19 µg/mL
- MIC ([9]; Proteus vulgaris B, 37° C overnight, read-out: M.I.C.): 1.56 µg/mL
- ED50 [13, 20]: 2 mg/kg
- ED50 [13, 21]: > 500 mg/kg

SMILES: CC1(C)S[C@@H]2[C@H](N=CN3CCCCC3)C(=O)N2[C@H]1C(=O)O [IV, 6-[(piperidyl-1)-methyleneamino]penicillanic acid]
- MIC [15]: 6.25 µg/mL
- MIC ([3]; Klebsiella-Enterobacter strain 1/70, read-out: M.I.C.): > 100 µg/mL
- MIC [3, 17]: 12.5 µg/mL
- MIC ([3]; Klebsiella-Enterobacter strain 5/70, read-out: M.I.C.): > 100 µg/mL
- MIC ([3]; Klebsiella-Enterobacter strain 7/70, read-out: M.I.C.): > 100 µg/mL
- MIC ([3]; Klebsiella-Enterobacter strain 9/70, read-out: M.I.C.): 3.12 µg/mL
- MIC ([3]; Klebsiella-Enterobacter strain 10/70, read-out: M.I.C.): > 100 µg/mL
- MIC ([3]; Klebsiella-Enterobacter strain 431, read-out: M.I.C.): > 100 µg/mL
- MIC ([4]; Proteus strain 4/70, read-out: M.I.C.): 25 µg/mL
- MIC [4, 18]: 3.12 µg/mL
- MIC ([4]; Proteus strain 7/70, read-out: M.I.C.): 50 µg/mL
- MIC ([4]; Proteus strain 9/70, read-out: M.I.C.): 100 µg/mL
- MIC ([4]; Proteus strain 10/70, read-out: M.I.C.): 25 µg/mL
- MIC ([12]; passage 0): 0.78 µg/mL
- MIC ([12]; passage 1): 6.25 µg/mL
- MIC ([12]; passage 2): 6.28 µg/mL
- MIC ([12]; passage 3): 25 µg/mL
- MIC ([12]; passage 4): 25 µg/mL
- MIC ([12]; passage 5): 25 µg/mL
- MIC ([12]; passage 6): 25 µg/mL
- MIC ([16]; Coliform strain 7/70): 1.56 µg/mL
- MIC ([16]; Coliform strain 16/70): 1.56 µg/mL
- MIC ([16]; Coliform strain 17/70): 1.56 µg/mL
